# Assay results published in US9066516B2, “Uses of thaxtomin and thaxtomin compositions as herbicides” (priority 2008, dated 2015).
# Legend:
# crabgrass [1] = experiment: Greenhouse synergy test MBI-005 + field crop herbicides (Example 11); format: in vivo; conditions: 14 days
# Procedure: […] other herbicides commonly used for field crops, glyphosate, glufosinate, synthetic version of bialaphos, and mesotrione were also tested for synergy with MBI-005 on crabgrass and ragweed.
# (§1) There were 3 replicates per treatment which were sprayed with approximately ⅔ ml per replicate. The treatments were completely randomized and kept in a greenhouse at 25° C. The efficacy was rated at 7 and 14 days post treatment.
# [2] = tested on: Mustard (Brassica juncea); experiment: Pre-emergence test of MBI-005, lab (Example 12); format: in vivo; conditions: pre-emergent
# Procedure: (§2) To further describe the spectrum of pre-emergence activity, tests were conducted in laboratory and field conditions. In laboratory testing, 35 seeds were placed on a ring of blotter paper inside a 3 cm petri dish and supplied with 4 ml of MBI-005 (≦0.1 mg MBI-005/ml). Water was used as a negative control and oryzalin applied as a positive control. Petri dishes were randomly placed in a growth room at 25° C. and 50% RH. Treatments were replicated three times and germinated seeds were counted 7 and 14 days after application; water was added as necessary to maintain moisture levels inside each petri dish.
# [3] = tested on: Lambsquarters (Chenopodium album); experiment: Pre-emergence test of MBI-005, lab (Example 12); format: in vivo; conditions: pre-emergent; also: ranges in brackets are in %
# Procedure: as §2
# [4] = tested on: Bearded Sprangletop (Leptochloa fascicularis); experiment: Pre-emergence test of MBI-005, lab (Example 12); format: in vivo; conditions: pre-emergent; also: ranges in brackets are in %
# Procedure: as §2
# [5] = tested on: Horseweed (R) (Conyza canadensis); experiment: Pre-emergence test of MBI-005, lab (Example 12); format: in vivo; conditions: pre-emergent, herbicide resistant population; also: ranges in brackets are in %
# Procedure: as §2
# [6] = tested on: Palmer pigweed (R) (Amaranthus palmerii); experiment: Pre-emergence test of MBI-005, lab (Example 12); format: in vivo; conditions: pre-emergent, herbicide resistant population; also: ranges in brackets are in %
# Procedure: as §2
# [7] = tested on: Late watergrass (R) (Echinochloa phyllopogon); experiment: Pre-emergence test of MBI-005, lab (Example 12); format: in vivo; conditions: pre-emergent, herbicide resistant population; also: ranges in brackets are in %
# Procedure: as §2
# [8] = tested on: Barnyardgrass (Echinochloa crus-gali); experiment: Pre-emergence test of MBI-005, lab (Example 12); format: in vivo; conditions: pre-emergent; also: ranges in brackets are in %
# Procedure: as §2
# [9] = tested on: Fall Panicum (Panicum dichotomiflorum); experiment: Pre-emergence test of MBI-005, lab (Example 12); format: in vivo; conditions: pre-emergent; also: ranges in brackets are in %
# Procedure: as §2
# [10] = tested on: Bristlegrass/Foxtail (Setaria viridis); experiment: Pre-emergence test of MBI-005, lab (Example 12); format: in vivo; conditions: pre-emergent; also: ranges in brackets are in %
# Procedure: as §2
# [11] = tested on: Ragweed (Ambrosia artemisifolia); experiment: Pre-emergence test of MBI-005, lab (Example 12); format: in vivo; conditions: pre-emergent; also: ranges in brackets are in %
# Procedure: as §2
# [12] = tested on: Clover (Trifolium repens); experiment: Pre-emergence test of MBI-005, lab (Example 12); format: in vivo; conditions: pre-emergent; also: ranges in brackets are in %
# Procedure: as §2
# [13] = tested on: Ryegrass (Lolium perenne); experiment: Pre-emergence test of MBI-005, lab (Example 12); format: in vivo; conditions: pre-emergent; also: ranges in brackets are in %
# Procedure: as §2
# [14] = tested on: Canarygrass (Phalaris minior); experiment: Pre-emergence test of MBI-005, lab (Example 12); format: in vivo; conditions: pre-emergent; also: ranges in brackets are in %
# Procedure: as §2
# [15] = tested on: Buckhorn plantain (Plantago lanceolata); experiment: Pre-emergence test of MBI-005, lab (Example 12); format: in vivo; conditions: pre-emergent; also: ranges in brackets are in %
# Procedure: as §2
# [16] = tested on: Black nightshade (Solanum nigrum); experiment: Pre-emergence test of MBI-005, lab (Example 12); format: in vivo; conditions: pre-emergent; also: ranges in brackets are in %
# Procedure: as §2
# [17] = tested on: mono and dicotyledonous seedlings; conditions: cited from earlier work
# [18] = tested on: small-flower umbrella sedge; experiment: Field study, 1-sq foot plots (Example 5); format: in vivo; conditions: 14 days after treatment
# Procedure: (§3) The combined effect of thaxtomin A and two commercial herbicides (Bipyribac-sodium formulated as Regiment and Lemongrass oil formulated as GreenMatch EX) on small-flower umbrella sedge and watergrass is tested in a field study using small (1-sq foot) plots. All single product treatments and tank mix combinations were sprayed at 57 gal per acre. Means in each column marked with the same letter in Table 2 are not statistically different from each other at p<0.05
# watergrass = experiment: Field study, 1-sq foot plots (Example 5); format: in vivo; conditions: 14 days after treatment
# Procedure: as §3
# crabgrass [19] = experiment: Crabgrass seed germination, MBI-005 + m-Tyrosine (Example 15); format: in vivo; conditions: MBI-005 at 0.0035 mg/mL, 7 DAT
# Procedure: Forty-five seeds were placed on a ring of blotter paper inside a 3 cm petri dish, covered with 10 cm^3 of inert baked clay particle media and supplied with 7 ml of 0.035 mg/ml MBI-005, a m-Tyrosine concentration, or a combination of MBI-005 and m-Tyrosine (Table 14). Water was used as a negative control. Petri dishes were randomly placed in a growth room at 25° C. and 50% RH. Treatments were replicated three times and germinated seeds were counted 7 days after application; water was added as necessary to maintain moisture levels inside each petri dish.
# Synergy was calculated as the ratio of observed (E) to expected (E/Ee) reduction in germination using Colby's formula.
# dandelion = experiment: Greenhouse synergy test MBI-005 + turf herbicides (Example 11); format: in vivo; conditions: 14 days
# Procedure: (§4) The common turf weeds dandelion and plantain were used in testing for synergy between MBI-005 and 2, 4- or dicamba, two common turf herbicides.
# as §1
# plantain = experiment: as above; format: in vivo; conditions: 14 days
# Procedure: as §4, §1
# [20] = tested on: Smallflower umbrella sedge; experiment: Post-emergent MBI-005 + Thiobencarb on Smallflower umbrella sedge (Example 21); format: in vivo; conditions: 14 days
# Procedure: […] Negative controls were sprayed with water. Pots were randomly placed in a growth room at 25° C. and 50% RH, and watered as necessary. Treatments were replicated three times and evaluated at 7 and 14 days for visual % damage, with 0% indicating no damage and 100% indicating plant death.
# Synergy was calculated as the ratio of observed (E) to expected (E/Ee) percent control using Colby's formula.
# barnyard grass = experiment: Greenhouse spray test bialaphos + MBI-005 (Example 10); format: in vivo
# Procedure: The MBI-005 and bialaphos were prepared at various concentrations either as single ingredients or in combination with bialaphos. The treatments were applied at approximately ⅔ ml per replicate with a hand-help spray nozzle to barnyard grass or sedge. There were 3 replicates per treatment which were randomized after spray and were kept in a greenhouse at 25° C. for evaluation of phytotoxicity (% control).
# [21] = tested on: Hairy galinsoga (Galinsoga ciliata); experiment: Pre-emergence test of MBI-005, field (Example 12); format: in vivo; conditions: pre-emergent; also: ranges in brackets are in %
# Procedure: In field testing, field soil containing weed seeds were treated with 38.2 L MBI-005/ha at a spray volume of 280 L/ha using a CO2 sprayer with flat fan nozzles. Treatments, including water as the negative control and Gallery as the positive control, were replicated four times and applied twice at a four week interval. Treatments were evaluated visually as % cover and above-ground fresh weights per container were taken.
smiles,measurement,setting,value
CN1C(=O)[C@](O)(Cc2cccc(O)c2)N(C)C(=O)[C@@H]1Cc1c[nH]c2cccc([N+](=O)[O-])c12 [thaxtomin A],% Control MBI-005,crabgrass [1]; MBI-005 0.125 mg/mL (glufosinate line),20.0%
same,% Control MBI-005,crabgrass [1]; MBI-005 0.125 mg/mL (glyphosate line),28.3%
same,Rating at 0.1 mg/ml (Reduction of Germination),[2],++++ (95-100)
same,Rating at 0.1 mg/ml (Reduction of Germination),[3],+++ (85-94)
same,Rating at 0.1 mg/ml (Reduction of Germination),[4],++++ (95-100)
same,Rating at 0.1 mg/ml (Reduction of Germination),[5],++++ (95-100)
same,Rating at 0.1 mg/ml (Reduction of Germination),[6],+++ (85-94)
same,Rating at 0.1 mg/ml (Reduction of Germination),[7],++++ (95-100)
same,Rating at 0.1 mg/ml (Reduction of Germination),[8],++++ (95-100)
same,Rating at 0.1 mg/ml (Reduction of Germination),[9],++++ (95-100)
same,Rating at 0.1 mg/ml (Reduction of Germination),[10],++++ (95-100)
same,Rating at 0.1 mg/ml (Reduction of Germination),[11],++++ (95-100)
same,Rating at 0.1 mg/ml (Reduction of Germination),[12],++++ (95-100)
same,Rating at 0.1 mg/ml (Reduction of Germination),[13],++++ (95-100)
same,Rating at 0.1 mg/ml (Reduction of Germination),[14],++++ (95-100)
same,Rating at 0.1 mg/ml (Reduction of Germination),[15],++++ (95-100)
same,Rating at 0.1 mg/ml (Reduction of Germination),[16],++++ (95-100)
same,"concentration causing cell swelling, necrosis and growth inhibition",[17],less than 1 uM
same,Sedge control (%),[18]; Thaxtomin 0.25 mg/mL,95a %
same,Sedge control (%),[18]; Thaxtomin 0.5 mg/mL,100a %
same,Watergrass control (%),watergrass; Thaxtomin 0.25 mg/mL,5d %
same,Watergrass control (%),watergrass; Thaxtomin 0.5 mg/mL,5d %
same,E (% controlled compared to UTC),crabgrass [19],14.3%
same,AVG No. germinated,crabgrass [19]; forty-five seeds,38.0
same,% Control MBI-005,"dandelion; MBI-005 0.1 mg/mL (2, 4-D line)",20.0%
same,% Control MBI-005,dandelion; MBI-005 0.1 mg/mL (dicamba line),20.0%
same,% Control MBI-005,plantain; MBI-005 0.12 mg/mL (dicamba line),10.0%
same,% Control MBI-005,"plantain; MBI-005 0.24 mg/mL (2, 4-D line)",25.0%
same,Observed Average % Efficacy (E),"[20]; first series, 2% MBI-005",20. %
same,Observed Average % Efficacy (E),"[20]; first series, .5% MBI-005",3.3%
same,Observed Average % Efficacy (E),"[20]; second series, 1% MBI-005",10.0%
same,Observed Average % Efficacy (E),"[20]; second series, 2% MBI-005",79.2%
same,% Control (14 days),"barnyard grass; Table 6, MBI-005 0.25 mg/L",1.3 ab %
same,% Control (14 days),"barnyard grass; Table 7, MBI-005 0.25 mg/mL",6.7 bc %
same,% Control (7 days),"barnyard grass; Table 8, MBI-005 0.38 mg/mL",6.7 ab %
same,% Control (14 days),"barnyard grass; Table 8, MBI-005 0.38 mg/mL",21.7 b %
same,Rating at 0.1 mg/ml (Reduction of Germination),[21],+++ (85-94)
